Assay results published in ChEMBL document CHEMBL1157146, “Structure-activity relationship of human GLO I inhibitory natural flavonoids and their growth inhibitory effects” (Bioorg Med Chem, 2008).
Activity calls are given as the source filed them. The rule behind the calls is not given here.

Experiments:
HL-60 = assay: Antiproliferative activity against human HL60 cells at 30 uM after 48 hrs by MTS assay; format: functional, cell-based
Lactoylglutathione lyase [1] = molecular target: T1, Lactoylglutathione lyase (Homo sapiens, UniProt Q04760); assay: Inhibition of human recombinant His-tagged Glyoxalase 1 expressed in Sf21-Baculovirus system
Target sequence in this assay (Q04760 whole entry): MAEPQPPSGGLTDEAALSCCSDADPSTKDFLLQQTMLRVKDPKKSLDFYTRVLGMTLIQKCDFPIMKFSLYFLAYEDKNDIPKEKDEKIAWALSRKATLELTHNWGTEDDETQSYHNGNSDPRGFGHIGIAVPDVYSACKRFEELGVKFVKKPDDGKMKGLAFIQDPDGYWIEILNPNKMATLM

Lactoylglutathione lyase [2] = molecular target: T1, Lactoylglutathione lyase; assay: Inhibition of human recombinant His-tagged Glyoxalase 1 expressed in Sf21-Baculovirus system at 100 uM
Target sequence in this assay (Q04760 2-184 limits assumed): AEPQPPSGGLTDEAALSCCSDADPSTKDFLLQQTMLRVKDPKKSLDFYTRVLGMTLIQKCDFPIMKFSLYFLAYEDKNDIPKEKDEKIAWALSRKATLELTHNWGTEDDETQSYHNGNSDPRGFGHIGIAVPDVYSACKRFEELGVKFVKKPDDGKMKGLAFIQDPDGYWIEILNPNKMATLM

Row | SMILES | Activity (HL-60) | IC50 (Lactoylglutathione lyase [1]) [µM] | inhibition (Lactoylglutathione lyase [2]) [%]
1 | O=c1c(O[C@@H]2O[C@H](CO)[C@H](O)[C@H](O)[C@H]2O)c(-c2ccc(O)c(O)c2)oc2cc(O)cc(O)c12 | Active |  | 
2 | O=c1cc(-c2ccccc2)oc2cc(O)c(O)c(O)c12 [BAICALEIN] | Active | 11 | 
3 | O=C(O)[C@H]1O[C@@H](Oc2cc3oc(-c4ccccc4)cc(=O)c3c(O)c2O)[C@H](O)[C@@H](O)[C@@H]1O | Active |  | 
4 | O=c1c(O)c(-c2ccc(O)c(O)c2)oc2cc(O)cc(O)c12 | Active |  | 
5 | N[C@@H](CCC(=O)N[C@@H](CSCc1ccc(Br)cc1)C(=O)NCC(=O)OC1CCCC1)C(=O)OC1CCCC1 | Active |  | 
6 | COc1c(O[C@H]2O[C@H](C(=O)O)[C@@H](O)[C@H](O)[C@H]2O)cc2oc(-c3ccccc3)cc(=O)c2c1O | Active |  | 
7 | O=c1c(O)c(-c2ccc(O)cc2)oc2cc(O)cc(O)c12 [KAEMPFEROL] | Active | 20.6 | 60
8 | O=C1C[C@@H](c2ccc(O)cc2)Oc2cc(O)cc(O)c21 | Active |  | 50
9 | O=c1cc(-c2ccc(O)c(O)c2)oc2cc(O)cc(O)c12 [LUTEOLIN] | Active | 7.7 | 
10 | O=c1c(O)c(-c2cc(O)c(O)c(O)c2)oc2cc(O)cc(O)c12 | Active |  | 
